What was measured:
Assay in all cases: Off-chip Mobility Shift Assay (MSA) kinase inhibition
Assay type in all cases: biochemical
ACK = target: T1, ACK (Homo sapiens, UniProt Q07912)
T1 construct: purchased Carna Biosciences
Method: (§1) Off-chip Mobility Shift Assay (MSA) by Cama Biosciences, Inc (Natick, Mass.) a used for measuring the kinase activity and inhibition. • 1) The 5 μL of x4 compound solution, 5 μL of x4 Substrate/ATP/Metal solution, and 10 μL of x2 kinase solution were prepared with assay buffer (20 mM HEPES, 0.01% Triton X100, 2 mM DTT, pH 7.5) and mixed and incubated in a well of polypropylene 384 well microplate for 1 or 5 hour(s)* at room temperature. (*; depending on kinase) • 2) 70 μL of Termination Buffer (QuickScout Screening Assist A; Cama Biosciences) was added to the welt • 3) The reaction mixture was applied to LabChip system (Perkin Elmer), and the product and substrate peptide peaks were separated and quantitated. • 4) The kinase reaction was evaluated by the product ratio calculated from peak heights of product (P) and substrate (S) peptides (P/(P+S)). • 5) The reaction conditions were followed according to assay protocols of Ca n Biosciences, Inc (BMA 3F, 1-5-5 Minatojima-Minamimachi, Chuo-ku, Kobe 650-0047, Japan; www.carnabio.com). • 6 Data analysis: The readout value of reaction control (complete reaction mixture) was set as a 0% inhibition, and the readout value of background (Enzyme (−)) was set as a 100% inhibition, then the percent inhibition of each test solution was calculated, […]

RET(G691S) = target: T2, RET(G691S) (Homo sapiens, UniProt P07949, G691S)
T2 construct: purchased Carna Biosciences
T2 sequence (P07949 29-1114 G691S): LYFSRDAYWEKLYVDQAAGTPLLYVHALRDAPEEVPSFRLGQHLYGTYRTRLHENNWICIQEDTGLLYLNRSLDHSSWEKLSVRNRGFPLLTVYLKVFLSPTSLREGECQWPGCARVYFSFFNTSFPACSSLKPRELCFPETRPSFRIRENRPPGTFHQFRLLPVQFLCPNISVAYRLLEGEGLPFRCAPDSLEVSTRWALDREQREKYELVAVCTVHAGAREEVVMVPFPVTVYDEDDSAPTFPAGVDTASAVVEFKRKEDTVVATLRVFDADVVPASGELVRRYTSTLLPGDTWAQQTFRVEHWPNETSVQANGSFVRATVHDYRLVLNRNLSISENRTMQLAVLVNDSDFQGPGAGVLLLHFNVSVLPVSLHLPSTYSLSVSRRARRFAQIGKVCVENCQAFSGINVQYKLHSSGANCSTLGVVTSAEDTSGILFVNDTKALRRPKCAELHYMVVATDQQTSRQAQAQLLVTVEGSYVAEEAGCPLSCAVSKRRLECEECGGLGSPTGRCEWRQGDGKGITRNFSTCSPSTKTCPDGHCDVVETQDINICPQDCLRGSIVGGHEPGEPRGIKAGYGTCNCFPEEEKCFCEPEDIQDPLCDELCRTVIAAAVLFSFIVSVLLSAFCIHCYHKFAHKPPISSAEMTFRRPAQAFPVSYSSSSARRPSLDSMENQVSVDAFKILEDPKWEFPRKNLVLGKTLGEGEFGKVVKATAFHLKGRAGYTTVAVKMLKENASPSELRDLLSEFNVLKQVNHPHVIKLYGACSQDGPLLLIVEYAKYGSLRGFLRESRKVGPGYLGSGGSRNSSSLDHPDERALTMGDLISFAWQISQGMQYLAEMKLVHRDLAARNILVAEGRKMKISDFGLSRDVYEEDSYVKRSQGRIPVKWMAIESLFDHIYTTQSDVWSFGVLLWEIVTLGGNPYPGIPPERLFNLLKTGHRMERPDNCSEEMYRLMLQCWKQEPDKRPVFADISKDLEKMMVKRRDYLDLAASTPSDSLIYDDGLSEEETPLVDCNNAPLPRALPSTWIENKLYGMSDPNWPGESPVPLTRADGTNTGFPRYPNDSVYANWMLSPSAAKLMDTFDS
Method: as §1

KIT(D816Y) = target: T3, KIT(D816Y) (Homo sapiens, UniProt P10721, D816Y); conditions: inhibitor concentration 1 μM
T3 construct: purchased Carna Biosciences
Method: as §1

MAP2K3 = target: T4, MAP2K3 (Homo sapiens, UniProt P46734); conditions: inhibitor concentration 1 μM
T4 construct: purchased Carna Biosciences
T4 sequence (P46734 whole entry): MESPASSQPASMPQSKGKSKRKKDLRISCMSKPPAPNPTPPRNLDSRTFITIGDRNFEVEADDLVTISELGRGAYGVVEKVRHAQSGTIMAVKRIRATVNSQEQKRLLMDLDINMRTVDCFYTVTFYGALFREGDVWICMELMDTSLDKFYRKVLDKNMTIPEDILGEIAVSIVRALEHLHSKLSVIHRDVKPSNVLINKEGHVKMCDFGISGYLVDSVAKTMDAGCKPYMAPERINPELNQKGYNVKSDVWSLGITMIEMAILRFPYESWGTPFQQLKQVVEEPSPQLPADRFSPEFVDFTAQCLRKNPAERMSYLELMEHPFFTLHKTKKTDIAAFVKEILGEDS
Method: as §1

MST1 = target: T5, MST1 (Homo sapiens, UniProt Q13043)
T5 construct: purchased Carna Biosciences
T5 sequence (Q13043 1-487): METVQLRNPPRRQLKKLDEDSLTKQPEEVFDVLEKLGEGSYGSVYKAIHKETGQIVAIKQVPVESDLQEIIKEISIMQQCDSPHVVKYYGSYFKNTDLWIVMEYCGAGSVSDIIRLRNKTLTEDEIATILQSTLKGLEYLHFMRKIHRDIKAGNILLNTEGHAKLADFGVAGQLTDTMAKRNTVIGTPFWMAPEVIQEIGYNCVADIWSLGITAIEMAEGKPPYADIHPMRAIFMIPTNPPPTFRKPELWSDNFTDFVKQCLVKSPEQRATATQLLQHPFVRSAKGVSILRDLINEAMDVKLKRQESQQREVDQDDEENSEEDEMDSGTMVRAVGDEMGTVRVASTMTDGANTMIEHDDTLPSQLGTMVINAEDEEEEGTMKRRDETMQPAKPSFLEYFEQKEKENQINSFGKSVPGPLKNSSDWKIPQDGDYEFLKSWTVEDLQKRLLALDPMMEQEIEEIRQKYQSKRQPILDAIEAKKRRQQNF
Method: as §1

DDR2 = target: T6, DDR2 (Homo sapiens, UniProt Q16832)
T6 construct: purchased Carna Biosciences
T6 sequence (Q16832 22-855): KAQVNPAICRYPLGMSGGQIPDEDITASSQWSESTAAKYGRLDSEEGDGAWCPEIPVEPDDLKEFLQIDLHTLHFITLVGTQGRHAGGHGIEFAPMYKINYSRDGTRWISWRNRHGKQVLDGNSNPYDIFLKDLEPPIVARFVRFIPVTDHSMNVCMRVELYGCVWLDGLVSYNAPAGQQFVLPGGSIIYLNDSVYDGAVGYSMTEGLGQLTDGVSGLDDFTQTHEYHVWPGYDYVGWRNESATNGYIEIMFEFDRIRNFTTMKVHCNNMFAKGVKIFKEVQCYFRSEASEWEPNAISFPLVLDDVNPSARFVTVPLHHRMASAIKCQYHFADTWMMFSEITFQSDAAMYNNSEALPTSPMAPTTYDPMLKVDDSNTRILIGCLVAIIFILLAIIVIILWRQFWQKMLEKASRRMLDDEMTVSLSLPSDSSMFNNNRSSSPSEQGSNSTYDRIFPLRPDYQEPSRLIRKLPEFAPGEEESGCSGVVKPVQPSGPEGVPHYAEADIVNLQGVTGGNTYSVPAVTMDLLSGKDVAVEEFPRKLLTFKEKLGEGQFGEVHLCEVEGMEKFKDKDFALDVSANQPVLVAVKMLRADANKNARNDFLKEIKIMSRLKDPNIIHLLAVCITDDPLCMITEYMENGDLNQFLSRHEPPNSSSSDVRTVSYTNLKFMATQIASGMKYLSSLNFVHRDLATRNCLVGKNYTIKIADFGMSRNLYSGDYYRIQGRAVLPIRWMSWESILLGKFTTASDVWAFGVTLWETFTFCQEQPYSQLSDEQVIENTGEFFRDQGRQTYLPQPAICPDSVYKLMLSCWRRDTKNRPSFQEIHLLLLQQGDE
Method: as §1

MST2 = target: T7, MST2 (Homo sapiens, UniProt Q13188)
T7 construct: purchased Carna Biosciences
T7 sequence (Q13188 1-491): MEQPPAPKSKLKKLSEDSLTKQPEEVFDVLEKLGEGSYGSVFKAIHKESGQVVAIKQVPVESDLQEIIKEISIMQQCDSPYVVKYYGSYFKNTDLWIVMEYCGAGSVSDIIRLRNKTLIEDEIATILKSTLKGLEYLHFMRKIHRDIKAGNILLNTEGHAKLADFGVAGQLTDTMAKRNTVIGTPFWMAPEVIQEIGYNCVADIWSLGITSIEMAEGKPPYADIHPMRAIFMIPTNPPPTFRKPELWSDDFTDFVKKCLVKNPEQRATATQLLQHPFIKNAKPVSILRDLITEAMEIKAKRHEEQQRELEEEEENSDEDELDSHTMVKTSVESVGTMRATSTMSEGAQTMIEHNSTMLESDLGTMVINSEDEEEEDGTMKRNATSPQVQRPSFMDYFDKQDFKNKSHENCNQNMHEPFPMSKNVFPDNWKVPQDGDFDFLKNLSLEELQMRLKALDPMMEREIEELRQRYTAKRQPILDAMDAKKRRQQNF
Method: as §1

MAP2K4 = target: T8, MAP2K4 (Homo sapiens, UniProt P45985); conditions: inhibitor concentration 1 μM
T8 construct: purchased Carna Biosciences
T8 sequence (P45985 whole entry): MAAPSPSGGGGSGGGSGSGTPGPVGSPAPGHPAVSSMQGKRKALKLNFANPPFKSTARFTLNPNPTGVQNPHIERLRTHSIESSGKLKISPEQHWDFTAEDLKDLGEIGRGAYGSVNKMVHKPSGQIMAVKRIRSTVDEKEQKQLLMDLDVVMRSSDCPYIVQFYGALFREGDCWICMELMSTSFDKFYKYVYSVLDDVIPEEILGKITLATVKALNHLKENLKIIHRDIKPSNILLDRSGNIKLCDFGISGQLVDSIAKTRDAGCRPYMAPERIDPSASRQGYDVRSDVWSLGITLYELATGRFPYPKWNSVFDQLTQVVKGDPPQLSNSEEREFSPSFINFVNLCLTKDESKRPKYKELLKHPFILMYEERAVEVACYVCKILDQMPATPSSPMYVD
Method: as §1

WNK3 = target: T9, WNK3 (Homo sapiens, UniProt Q9BYP7); conditions: inhibitor concentration 1 μM
T9 construct: purchased Carna Biosciences
T9 sequence (Q9BYP7 whole entry): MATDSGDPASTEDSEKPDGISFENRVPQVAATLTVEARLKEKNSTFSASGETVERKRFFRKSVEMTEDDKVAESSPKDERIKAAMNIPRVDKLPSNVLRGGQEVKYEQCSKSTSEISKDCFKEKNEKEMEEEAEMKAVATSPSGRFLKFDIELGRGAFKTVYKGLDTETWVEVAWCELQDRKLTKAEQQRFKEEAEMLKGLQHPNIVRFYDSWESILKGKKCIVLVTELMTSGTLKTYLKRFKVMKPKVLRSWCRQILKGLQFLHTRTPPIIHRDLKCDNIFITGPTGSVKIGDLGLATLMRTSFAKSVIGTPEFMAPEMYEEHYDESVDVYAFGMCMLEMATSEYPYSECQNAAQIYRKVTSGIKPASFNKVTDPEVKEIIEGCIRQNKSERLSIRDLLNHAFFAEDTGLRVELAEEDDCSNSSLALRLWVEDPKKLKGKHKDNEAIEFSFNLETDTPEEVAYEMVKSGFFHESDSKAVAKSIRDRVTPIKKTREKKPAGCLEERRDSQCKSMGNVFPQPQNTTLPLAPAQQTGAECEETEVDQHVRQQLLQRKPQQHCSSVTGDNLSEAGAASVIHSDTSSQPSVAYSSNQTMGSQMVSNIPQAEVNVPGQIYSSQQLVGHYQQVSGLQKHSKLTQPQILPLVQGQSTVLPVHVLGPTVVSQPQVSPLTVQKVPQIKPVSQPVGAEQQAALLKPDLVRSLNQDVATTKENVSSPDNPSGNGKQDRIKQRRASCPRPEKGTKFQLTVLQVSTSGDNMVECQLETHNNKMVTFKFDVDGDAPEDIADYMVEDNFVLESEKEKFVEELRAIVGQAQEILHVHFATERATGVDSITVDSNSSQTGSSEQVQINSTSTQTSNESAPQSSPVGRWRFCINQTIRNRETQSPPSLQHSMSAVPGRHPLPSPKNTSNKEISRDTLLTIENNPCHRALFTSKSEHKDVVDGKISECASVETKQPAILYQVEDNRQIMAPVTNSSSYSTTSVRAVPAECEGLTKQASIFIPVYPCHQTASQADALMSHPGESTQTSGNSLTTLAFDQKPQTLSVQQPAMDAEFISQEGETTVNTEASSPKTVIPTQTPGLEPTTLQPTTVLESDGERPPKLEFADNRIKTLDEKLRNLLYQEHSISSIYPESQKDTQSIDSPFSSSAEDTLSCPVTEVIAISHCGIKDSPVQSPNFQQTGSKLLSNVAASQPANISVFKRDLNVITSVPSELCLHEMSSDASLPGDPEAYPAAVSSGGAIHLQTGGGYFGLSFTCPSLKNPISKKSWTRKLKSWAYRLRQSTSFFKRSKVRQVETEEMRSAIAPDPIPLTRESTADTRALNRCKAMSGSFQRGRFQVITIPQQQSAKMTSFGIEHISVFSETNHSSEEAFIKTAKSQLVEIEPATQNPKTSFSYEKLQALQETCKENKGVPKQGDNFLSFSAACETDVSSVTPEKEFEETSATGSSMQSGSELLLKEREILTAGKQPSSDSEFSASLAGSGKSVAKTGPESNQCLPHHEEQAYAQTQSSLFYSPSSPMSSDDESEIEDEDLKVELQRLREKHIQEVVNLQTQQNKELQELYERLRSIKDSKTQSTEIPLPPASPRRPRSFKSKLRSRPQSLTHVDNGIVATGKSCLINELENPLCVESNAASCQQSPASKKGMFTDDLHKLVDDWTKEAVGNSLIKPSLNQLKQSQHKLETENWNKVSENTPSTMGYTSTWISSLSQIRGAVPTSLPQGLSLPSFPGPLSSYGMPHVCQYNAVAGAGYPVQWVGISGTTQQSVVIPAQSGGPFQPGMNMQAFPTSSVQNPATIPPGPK
Method: as §1

[1] = inhibitor concentration 0.01 μM

T1 sequence (Q07912 whole entry): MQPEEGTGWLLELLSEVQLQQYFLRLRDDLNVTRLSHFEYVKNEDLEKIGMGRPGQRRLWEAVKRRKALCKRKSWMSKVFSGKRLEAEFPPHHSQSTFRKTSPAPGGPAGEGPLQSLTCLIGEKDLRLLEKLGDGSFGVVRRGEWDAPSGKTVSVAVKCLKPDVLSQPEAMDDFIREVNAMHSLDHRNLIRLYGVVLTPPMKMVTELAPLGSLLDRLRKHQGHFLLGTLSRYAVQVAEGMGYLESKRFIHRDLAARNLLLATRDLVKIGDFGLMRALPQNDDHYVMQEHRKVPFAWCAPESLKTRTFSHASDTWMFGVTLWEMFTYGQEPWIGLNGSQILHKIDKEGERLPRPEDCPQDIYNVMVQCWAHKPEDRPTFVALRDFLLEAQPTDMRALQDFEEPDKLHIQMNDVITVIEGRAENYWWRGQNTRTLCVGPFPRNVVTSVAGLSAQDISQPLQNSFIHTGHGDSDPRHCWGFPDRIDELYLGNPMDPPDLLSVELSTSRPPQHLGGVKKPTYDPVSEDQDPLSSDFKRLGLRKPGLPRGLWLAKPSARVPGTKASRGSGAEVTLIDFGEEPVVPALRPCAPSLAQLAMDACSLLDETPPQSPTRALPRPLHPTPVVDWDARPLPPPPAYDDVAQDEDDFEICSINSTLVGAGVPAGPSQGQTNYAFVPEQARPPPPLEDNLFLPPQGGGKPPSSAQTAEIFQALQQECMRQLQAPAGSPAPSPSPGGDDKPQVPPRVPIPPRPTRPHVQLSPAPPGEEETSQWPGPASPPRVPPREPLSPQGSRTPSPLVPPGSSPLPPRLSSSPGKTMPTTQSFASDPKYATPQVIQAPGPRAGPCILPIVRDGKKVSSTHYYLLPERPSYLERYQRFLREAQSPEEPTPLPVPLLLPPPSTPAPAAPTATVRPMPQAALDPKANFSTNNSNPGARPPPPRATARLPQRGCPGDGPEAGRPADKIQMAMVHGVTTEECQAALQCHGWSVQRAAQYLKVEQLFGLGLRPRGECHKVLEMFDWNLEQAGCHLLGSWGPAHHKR

SMILES: O=C(c1c(F)ccc(NS(=O)(=O)CCCO)c1F)c1c[nH]c2ncc(-c3ccc(Cl)cc3)cc12 [200-17, N-[3-[5-(4-chlorophenyl)-1H-pyrrolo[2,3-b]pyridine-3-carbonyl]-2,4-difluorophenyl]-3-hydroxypropane-1-sulfonamide]
- inhibition at 0.01 µM (ACK; [1]): < 30%
- inhibition at 0.1 µM (ACK; inhibitor concentration 0.1 μM): < 50%
- inhibition at 1 µM (ACK; inhibitor concentration 1 μM): > 50%
- inhibition at 0.01 µM (RET(G691S); [1]): < 30%
- inhibition at 0.1 µM (RET(G691S); inhibitor concentration 0.1 μM): < 50%
- inhibition at 1 µM (RET(G691S); inhibitor concentration 1 μM): > 50%
- inhibition at 1 µM (KIT(D816Y)): < 50%
- inhibition at 1 µM (MAP2K3): > 50%
- inhibition at 0.01 µM (MST1; [1]): < 30%
- inhibition at 0.1 µM (MST1; inhibitor concentration 0.1 μM): > 50%
- inhibition at 1 µM (MST1; inhibitor concentration 1 μM): > 50%
- inhibition at 0.01 µM (DDR2; [1]): < 30%
- inhibition at 0.1 µM (DDR2; inhibitor concentration 0.1 μM): > 50%
- inhibition at 1 µM (DDR2; inhibitor concentration 1 μM): > 50%
- inhibition at 0.01 µM (MST2; [1]): < 30%
- inhibition at 0.1 µM (MST2; inhibitor concentration 0.1 μM): < 50%
- inhibition at 1 µM (MST2; inhibitor concentration 1 μM): > 50%
- inhibition at 1 µM (MAP2K4): < 50%
- inhibition at 1 µM (WNK3): > 50%
